Some results are limits rather than exact numbers.

What is called Papp B→A is how fast a substance crosses the layer from the basolateral side. For orientation: Papp A→B means the apparent permeability from the apical to the basolateral side of a cell layer. For orientation: IC50 means the point on the concentration scale where inhibition reaches its midpoint.

The nature of data set [1]: Caco-2 membrane permeability and efflux rate. It is filed as in vitro ADME. The settings on record: human, Caco-2, Caco-2, 5 μM. As for the experimental part:
The recovered Caco-2 cell suspension was seeded into a […] plate and cultured for 14-18 days. After being cultured for 14 days, the cells were fused and differentiated to be ready for a transport experiment. The Caco-2 cell plate was taken out from the incubator. Stock solutions of a to-be-tested compound and a control compound were formulated with DMSO and diluted with an HBSS (10 mM HEPES, pH 7.4) buffer to a final concentration of 5 μM. A test compound solution and a control drug solution were added to each well (top end) of an insert culture plate, and the HBSS (10 mM HEPES, pH 7.4) buffer was added to each well of a test compound receiving plate (basal end). When measuring the transport rate of the compound from the basal end to the top end, the test compound solution and the control drug solution were added to each well of the receiving plate (basal end), the HBSS (10 mM HEPES, pH 7.4) buffer solution was added to each well (top end) of the insert culture plate for the test compound solution, and incubation was carried out for 2 hours in a CO2 incubator at 37° C. After the transport experiment was completed, vortexing was carried out for 10 minutes at 1000 rpm. After sample quenching at each time point, LC/MS/MS analysis was carried out. A fluorescence value was measured after a two-hour transport experiment, a lucifer yellow solution was added in a transwell chamber (top end), a transport buffer solution was added in the basal end, and incubation was carried out for 30 minutes in the CO2 incubator at 37° C. The solution was taken out directly from the top end and the basal end (using basolateral wells) and transferred to a new 96-well plate. A cell fluorescence value was measured by a microplate reader (to detect membrane integrity), an excitation wavelength was […], and an emission wavelength was […]. All data were calculated by using Microsoft Excel, and a peak area was calculated according to chromatograms. An apparent permeability coefficient (Papp, unit: 10-6, cm/s) and an efflux rate (ER) of the compounds in Caco-2 cells were calculated by the specific concentrations of a receiving end and an administering end.
(In general: Passage across Caco-2 layers is used to estimate intestinal permeability.)

Data set [2] concerns the target CDK7/cyclinH/MAT1 complex (Homo sapiens, UniProt P50613). Kind of data set: In-vitro enzymatic inhibitory activity testing, CDK7 inhibition assay (Caliper EZ Reader II). The class given is biochemical. The settings on record: CDK7/cyclinH/MAT1 6 nM, 180 min at 27° C. The method in brief:
(§1)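 Enzyme preincubated 10 min with compound, then peptide substrate plus ATP added in 80 mM MES pH 6.5, 10 mM MgCl2 buffer; 180 min at 27 °C, stopped with EDTA.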

The target of the next data set is CDK2/cyclinE1 complex (Homo sapiens, UniProt P24941). Kind of data set: In-vitro enzymatic inhibitory activity testing, CDK2 inhibition assay (Caliper EZ Reader II). It is filed as biochemical. The settings on record: CDK2/cyclinE1 0.5 nM, 180 min at 27° C. The method in brief:
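CDK2/cyclinE1 (0.5 nM) phosphorylated 5-FAM-CDK7tide (2 μM) in MES buffer pH 6.5 with MgCl2, Tween 20 and BSA. Substrate and product were separated electrophoretically on a Caliper EZ Reader II. IC50 values came from nonlinear dose-response fits.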

For a further data set, the target named is CDK9/cyclinT1 complex (Homo sapiens, UniProt P50750). Kind of data set: In-vitro enzymatic inhibitory activity testing, CDK9 inhibition assay (Caliper EZ Reader II). The class given is biochemical. The settings on record: CDK9/cyclinT1 8 nM, 180 min at 27° C. The method in brief:
as §1

For data set [3], the target named is T1, CDK12 (aa686-1082)/cyclinK complex (Homo sapiens, UniProt Q9NYV4).
T1 construct: A CDK12 (aa686-1082)/cyclinK complex (50 nM)
Kind of data set: In-vitro enzymatic inhibitory activity testing, CDK12 inhibition assay (Caliper EZ Reader II). It is filed as biochemical. The settings on record: CDK12/cyclinK 50 nM, 180 min at 27° C.; read-out: CDK12 IC50. In outline:
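Caliper EZ Reader II mobility-shift separation of 5-FAM-CDK9tide substrate (2 μM) from phosphoproduct, using 50 nM CDK12 (aa686-1082)/cyclinK in 80 mM MES pH 6.5, 10 mM MgCl2, 0.01% Tween 20, 50 ug/mL BSA. Compound pre-incubated 10 min with enzyme, then substrate/ATP added for 180 min at 27° C; EDTA stop. IC50 by nonlinear dose-response regression.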

Data set [4] concerns human breast cancer cells HCC70. Kind of data set: Cell biological activity detection (CyQuant, 72 hours), HCC70. The class given is cell-based. Conditions: Homo sapiens, HCC70, 72 h, incubation for 72 hours. The method in brief:
(§2)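 A2780 and HCC70 cells seeded at 2000/well in RPMI 1640 + 10% FBS, treated next day with 9-point compound dilutions (top 10 μM, 1:4; 0.2% DMSO) for 72 h at 37 °C. Cell number read by CyQuant Direct nucleic acid stain (ex 488 nm); IC50 from dose–response fit.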

Another data set deals with ovarian cancer A2780. Kind of data set: Cell biological activity detection (CyQuant, 72 hours), A2780. The class given is cell-based, human. The settings on record: Homo sapiens, A2780, 72 h, A2780 cells, incubation for 72 hours. In outline:
as §2

Chain of CDK9/cyclinT1 complex (P50750 whole entry, species assumed): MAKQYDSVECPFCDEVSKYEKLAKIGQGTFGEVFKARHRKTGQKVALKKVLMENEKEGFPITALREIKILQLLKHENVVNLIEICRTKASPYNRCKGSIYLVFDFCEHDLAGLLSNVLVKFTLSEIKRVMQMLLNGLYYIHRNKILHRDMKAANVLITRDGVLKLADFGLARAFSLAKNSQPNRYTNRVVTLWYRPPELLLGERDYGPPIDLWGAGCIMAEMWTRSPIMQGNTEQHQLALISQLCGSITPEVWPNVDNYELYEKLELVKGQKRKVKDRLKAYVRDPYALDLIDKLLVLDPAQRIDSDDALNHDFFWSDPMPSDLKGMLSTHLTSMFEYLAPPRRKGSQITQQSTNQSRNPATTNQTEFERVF
Chain of CDK9/cyclinT1 complex (O60563 whole entry partner, species assumed): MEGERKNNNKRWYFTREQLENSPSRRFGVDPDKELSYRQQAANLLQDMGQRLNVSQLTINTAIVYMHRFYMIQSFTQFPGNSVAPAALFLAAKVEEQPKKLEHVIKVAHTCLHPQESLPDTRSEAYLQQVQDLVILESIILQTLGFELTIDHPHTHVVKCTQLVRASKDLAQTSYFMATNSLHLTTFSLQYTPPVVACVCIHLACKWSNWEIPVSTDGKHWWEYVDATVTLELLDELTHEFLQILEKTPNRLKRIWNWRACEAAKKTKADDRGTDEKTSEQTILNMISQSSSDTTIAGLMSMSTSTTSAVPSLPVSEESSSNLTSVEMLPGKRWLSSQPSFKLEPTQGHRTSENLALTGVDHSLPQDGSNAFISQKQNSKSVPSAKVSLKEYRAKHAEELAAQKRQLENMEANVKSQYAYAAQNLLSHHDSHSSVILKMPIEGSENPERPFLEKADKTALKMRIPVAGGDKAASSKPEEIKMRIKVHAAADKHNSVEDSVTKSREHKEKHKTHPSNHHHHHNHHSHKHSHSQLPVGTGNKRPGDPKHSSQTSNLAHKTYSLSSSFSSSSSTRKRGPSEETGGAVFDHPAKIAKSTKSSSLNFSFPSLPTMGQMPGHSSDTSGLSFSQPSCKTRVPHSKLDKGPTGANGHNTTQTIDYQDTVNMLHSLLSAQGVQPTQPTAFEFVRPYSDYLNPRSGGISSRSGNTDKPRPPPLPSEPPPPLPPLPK
Chain of CDK7/cyclinH/MAT1 complex (P50613 whole entry, species assumed): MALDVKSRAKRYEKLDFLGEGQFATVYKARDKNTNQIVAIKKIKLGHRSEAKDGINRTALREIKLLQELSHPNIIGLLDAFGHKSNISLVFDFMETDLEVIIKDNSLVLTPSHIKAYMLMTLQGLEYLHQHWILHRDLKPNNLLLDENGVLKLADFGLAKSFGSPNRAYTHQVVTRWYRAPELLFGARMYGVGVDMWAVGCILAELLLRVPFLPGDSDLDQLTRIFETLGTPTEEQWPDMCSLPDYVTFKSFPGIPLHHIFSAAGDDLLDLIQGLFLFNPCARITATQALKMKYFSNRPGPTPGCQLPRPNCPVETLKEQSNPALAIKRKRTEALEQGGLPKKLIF
Chain of CDK7/cyclinH/MAT1 complex (P51946 whole entry partner, species assumed): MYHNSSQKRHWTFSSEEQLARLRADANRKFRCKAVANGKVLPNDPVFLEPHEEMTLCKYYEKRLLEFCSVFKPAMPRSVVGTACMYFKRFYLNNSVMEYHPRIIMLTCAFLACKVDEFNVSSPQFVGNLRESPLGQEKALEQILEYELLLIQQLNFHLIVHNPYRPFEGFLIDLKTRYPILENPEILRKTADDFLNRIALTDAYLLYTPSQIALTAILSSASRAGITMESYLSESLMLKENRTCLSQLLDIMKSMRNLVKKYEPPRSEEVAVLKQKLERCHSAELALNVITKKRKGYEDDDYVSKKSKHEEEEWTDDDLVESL
Chain of CDK7/cyclinH/MAT1 complex (P51948 whole entry partner, species assumed): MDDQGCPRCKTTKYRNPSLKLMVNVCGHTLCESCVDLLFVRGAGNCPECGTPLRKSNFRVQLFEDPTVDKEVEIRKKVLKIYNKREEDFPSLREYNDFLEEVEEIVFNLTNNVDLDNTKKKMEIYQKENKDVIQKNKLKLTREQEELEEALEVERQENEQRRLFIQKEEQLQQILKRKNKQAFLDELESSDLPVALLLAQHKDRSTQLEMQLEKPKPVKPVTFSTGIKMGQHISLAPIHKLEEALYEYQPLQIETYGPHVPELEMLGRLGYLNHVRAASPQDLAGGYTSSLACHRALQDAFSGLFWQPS
T1 sequence (Q9NYV4 686-1082, species assumed): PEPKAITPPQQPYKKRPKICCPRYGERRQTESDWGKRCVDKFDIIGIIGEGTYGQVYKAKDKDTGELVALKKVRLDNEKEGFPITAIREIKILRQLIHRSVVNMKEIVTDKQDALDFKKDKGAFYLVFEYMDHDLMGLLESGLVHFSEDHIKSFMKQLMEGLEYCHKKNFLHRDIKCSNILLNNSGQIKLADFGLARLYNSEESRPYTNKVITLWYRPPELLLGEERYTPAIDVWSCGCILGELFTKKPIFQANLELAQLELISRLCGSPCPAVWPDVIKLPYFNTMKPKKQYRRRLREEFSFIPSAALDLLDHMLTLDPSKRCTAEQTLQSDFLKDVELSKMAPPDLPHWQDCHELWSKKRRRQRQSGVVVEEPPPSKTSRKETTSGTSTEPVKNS
T1 sequence (O75909 whole entry partner, species assumed, the tested form may be a part): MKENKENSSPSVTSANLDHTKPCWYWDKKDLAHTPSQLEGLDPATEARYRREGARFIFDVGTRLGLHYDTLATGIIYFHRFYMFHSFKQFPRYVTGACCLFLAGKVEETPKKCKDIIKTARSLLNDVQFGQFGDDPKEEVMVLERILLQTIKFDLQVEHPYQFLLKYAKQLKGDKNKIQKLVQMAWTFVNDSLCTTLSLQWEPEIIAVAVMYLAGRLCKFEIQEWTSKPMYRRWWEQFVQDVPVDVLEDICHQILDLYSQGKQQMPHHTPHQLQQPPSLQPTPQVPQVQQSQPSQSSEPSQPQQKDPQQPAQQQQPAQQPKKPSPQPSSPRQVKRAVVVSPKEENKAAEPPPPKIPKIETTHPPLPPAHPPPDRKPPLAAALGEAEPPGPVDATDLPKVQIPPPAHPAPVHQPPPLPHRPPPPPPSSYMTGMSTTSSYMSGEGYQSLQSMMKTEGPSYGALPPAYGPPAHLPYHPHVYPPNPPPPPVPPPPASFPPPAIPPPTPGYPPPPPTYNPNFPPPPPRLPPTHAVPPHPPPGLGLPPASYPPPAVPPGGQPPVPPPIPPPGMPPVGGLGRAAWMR

For the molecule `CP(C)(=O)c1cccc2c(-c3nc(N[C@H]4CCCNC4)ncc3C(F)(F)F)c[nH]c12` [A control compound WO2018013867 (353), reference compound], the Papp B→A at 2 h, 5 μM in data set [1] (basal end to top end) was 15.9 ×10⁻⁶ cm/s. In data set [1] (read-out: ER (efflux rate)), the efflux ratio at 2 h, 5 μM came out at 70.7. Also, the Papp A→B at 2 h, 5 μM in data set [1] (top end to basal end) came to 0.23 ×10⁻⁶ cm/s.
Take `CP(C)(=O)c1c(C#N)ccc2c(-c3nc(N[C@@H]4CCC45CNC5)ncc3C(F)(F)F)c[nH]c12` [Compound 77, (R)-3-(2-((2-azaspiro[3.3]heptan-5-yl)amino)-5-(trifluoromethyl)pyrimidin-4-yl)-7-(dimethylphosphoryl)-1H-indole-6-carbonitrile]: the IC50 in data set [2] is 20 to 200 nM; against CDK2/cyclinE1 complex, above 50000 nM; on CDK9/cyclinT1 complex it was above 50000 nM; in data set [3], above 50000 nM; in data set [4], 20 to 200 nM; in the data set on ovarian cancer A2780, 20 to 200 nM.
As for `CP(C)(=O)c1cccc2c(-c3nc(NCC4(O)CCOC4)ncc3C(F)(F)F)c[nH]c12` (single isomer, unassigned) [Compound 121], the concentration for half-maximal inhibition (IC50) in data set [2] was 20 to 200 nM; at CDK2/cyclinE1 complex, 5000 to 50000 nM; at CDK9/cyclinT1 complex, above 50000 nM; in data set [3], above 50000 nM; in data set [4], 20 to 200 nM; with ovarian cancer A2780 it was 200 to 5000 nM.
`CP(C)(=O)c1cccc2c(-c3nc(NC(CO)CO)ncc3C(F)(F)F)c[nH]c12` [Compound 194, (3-(2-((1,3-dihydroxypropan-2-yl)amino)-5-(trifluoromethyl)pyrimidin-4-yl)-1H-indole-7-yl)dimethylphosphine oxide]: the IC50 was below 20 nM in data set [2]; 5000 to 50000 nM at CDK2/cyclinE1 complex; above 50000 nM against CDK9/cyclinT1 complex; above 50000 nM in data set [3]; 20 to 200 nM in data set [4]; below 20 nM in the data set on ovarian cancer A2780.

(Values after patent US20240124504A1, “AROMATIC HETEROCYCLIC COMPOUND, AND PHARMACEUTICAL COMPOSITION AND APPLICATION THEREOF” (GT APEIRON THERAPEUTICS LIMITED, priority 2020, published 2024).)
